Assay results published in patent US20220296518A1, “LIPID-BASED NANOPARTICLE DELIVERY SYSTEM FOR HYDROPHILIC CHARGED COMPOUND” (National Taiwan University, priority 2021, published 2022).
Converted amounts (≈) assume the structure as drawn.

Legend:
Staphylococcus aureus = test: In vitro antibacterial susceptibility, Staphylococcus aureus; format: cell-based; details: 10^5 CFU, about 24 hour, about 37° C.
Procedure: FIG. 8 illustrates in vitro Staphylococcus aureus antibacterial susceptibility to LNP 1 of the present invention encapsulating doxycycline as compared to free form doxycycline both at MIC 0.4 mcg/ml.
(§1) Free form doxycycline and LNP 1 of the present invention containing doxy were separately applied to Staphylococcus aureus bacteria as well as methicillin-resistant Staphylococcus aureus at 10^5 CFU, incubation with LNP for about 24 hour at about 37° C.

[1] = test system: methicillin-resistant Staphylococcus aureus; test: In vitro antibacterial susceptibility, methicillin-resistant Staphylococcus aureus; format: cell-based; details: 10^5 CFU, about 24 hour, about 37° C.
Procedure: FIG. 9 illustrates in vitro methicillin-resistant Staphylococcus aureus antibacterial susceptibility to LNP 1 of the present invention encapsulating doxycycline as compared to free form doxycycline both at MIC 0.4 mcg/ml.
as §1

[2] = In vitro drug release by dialysis at pH 7.4 (PBS) and pH 5.4 (citrate buffer), 37° C.; format: physicochemical
Excerpt: The “normalized release” is defined as release ratio in pH 5.4 environment divided by release ratio in pH 7.4 environment wherein the release ratio is defined as the percentage of API released from LNP. A high normalized release is a result of high release ratio in pH 5.4 environment as compared to the release ratio in pH 7.4 environment. Since tumor sites present acidic environment, a high normalized release is a metric indicating tumor targeting capability of an LNP. During experiments, PBS buffer was used to simulate a physiological environment at pH of 7.4, while citrate buffer was used to simulate a tumor microenvironment at pH of 5.4, wherein the citrate buffer contains sodium citrate dehydrate and citric acid and its pH can be adjusted using NaOH and HCl. The in vitro API release was evaluated in these two different solutions using the following steps: 1 mg/mL LNP-dox solution in PBS buffer was prepared by diluting LNP-dox using PBS buffer. The solution was placed into a 1 mL/5 cm dialysis tube (Float-A-lyzer), in which the pore size is 100 kDa. The tube was placed into a beaker containing 150 mL dialysis buffer. The beaker was then placed into a 37° C. water bath. Samples of 1 mL solution were taken from the beaker at 0, 0.5, 1, 2, 4, 8, 26, and 31 hour(s). The API content in the samples was analyzed using UV-Vis spectrophotometer such as […]. […]

colon-26 carcinoma tumor = test: In vivo therapeutic efficacy in colon-26 carcinoma tumor-bearing mice; parameters: species or system BALB/c mice; details: end of the experiment; 5 mg/kg of dox via tail vein, once per week
Procedure: C26 […] cancer cell line was implanted into the backs of BALB/c mice to create colon-26 carcinoma tumor-bearing mice. When the tumor grew to 100 mm^3, LNP 1 of the present invention containing dox was injected via mice's vein located in the tail at a dosage of 5 mg/kg of dox, once per week. At predetermined time periods 1, 2, 5, 7, 9, 12, 14, 19, 21, 22 days, tumor volume was determined by Vernier caliper. The experiment continued until either mouse death or the tumor size exceeding 2,500 mm^3.

| Compound | MIC (Staphylococcus aureus) [µg/mL] | MIC [1] [µg/mL] | normalized release (release ratio at pH 5.4 / release ratio at pH 7.4) ([2]; 37° C., dialysis, up to 31 hours) | release rate (in words) ([2]; pH 7.4 and pH 5.4, 37° C., FIG. 6) | mice that died or had tumor size of over 2500 mm^3 (colon-26 carcinoma tumor) [%] |
| --- | --- | --- | --- | --- | --- |
| C[C@H]1c2cccc(O)c2C(=O)C2=C(O)[C@]3(O)C(=O)C(C(N)=O)=C(O)[C@@H](N(C)C)[C@@H]3[C@@H](O)[C@@H]21 [free form doxycycline, doxycycline] | 0.4 (≈ 0.9 µM) | 0.4 (≈ 0.9 µM) |  |  |  |
| COc1cccc2c1C(=O)c1c(O)c3c(c(O)c1C2=O)C[C@@](O)(C(=O)CO)C[C@@H]3O[C@H]1C[C@H](N)[C@H](O)[C@H](C)O1 [free form dox, doxorubicin] |  |  | about 1 | released the fastest of the three | 40 |
